Several values for one entry are separate records, joined by “and”; a condition that tells them apart may be missing. Equal entries are not always repeated.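 Where inhibition never reached the appropriate level, the endpoint shown equals the highest concentration tested. Otherwise, values were interpolated linearly from a five-concentration, 48-hour dose response in 96-well plates. GI50 marks 50% less growth. TGI denotes the concentration required for complete inhibition of growth.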
Columns and labels:
Test in all cases: NCI anticancer screen, dose series, 48 h
A549 NSCLC = tested on: A549 NSCLC
HCT-15 colon = tested on: HCT-15 colon
HOP-62 NSCLC = tested on: HOP-62 NSCLC
HS 578T breast = tested on: HS 578T breast
MDA-MB-231 breast = tested on: MDA-MB-231 breast
MOLT-4 leukemia = tested on: MOLT-4 leukemia
SNB-19 CNS = tested on: SNB-19 CNS
SR leukemia = tested on: SR leukemia
SW-620 colon = tested on: SW-620 colon
TK-10 renal = tested on: TK-10 renal

| SMILES | GI50 (A549 NSCLC) [µM] | TGI (A549 NSCLC) [µM] | GI50 (HCT-15 colon) | TGI (HCT-15 colon) | GI50 (HOP-62 NSCLC) [µM] | TGI (HOP-62 NSCLC) [µM] | GI50 (HS 578T breast) [µM] | TGI (HS 578T breast) [µM] | GI50 (MDA-MB-231 breast) [µM] | TGI (MDA-MB-231 breast) [µM] | GI50 (MOLT-4 leukemia) [µM] | TGI (MOLT-4 leukemia) [µM] | GI50 (SNB-19 CNS) [µM] | TGI (SNB-19 CNS) [µM] | GI50 (SR leukemia) [µM] | TGI (SR leukemia) [µM] | GI50 (SW-620 colon) | TGI (SW-620 colon) [µM] | GI50 (TK-10 renal) [µM] | TGI (TK-10 renal) [µM] |
| --- | --- | --- | --- | --- | --- | --- | --- | --- | --- | --- | --- | --- | --- | --- | --- | --- | --- | --- | --- | --- |
| O=C1CC(=O)OC(c2ccc([N+](=O)[O-])cc2)O1 | 2.6 | 7.78 | 2.25 µM | 7.15 µM | 2.47 | 6.79 | 2.7 | 11.9 | 2.21 | 5.09 | 2.66 | 8.41 | 3.43 | 12.3 | 2.62 | 9.09 | 1.68 µM | 3.41 | 1.92 | 4.53 |
| COC(=O)CCC1=C(C)/C(=C/c2[nH]c(-c3ccc[nH]3)cc2OC)N=C1C | 0.565 | 6.32 | 0.265 µM | 1.95 µM | 0.454 | 1.53 | 1.04 | 9.01 | 0.223 | 1.35 | 0.368 | 7.08 | 2.02 | 17.5 | 0.317 | 88.7 | 0.333 µM | 1.67 | 2.34 | 9.22 |
| N#C[C@@H]1C(n2ccc(N)nc2=O)O[C@H](CO)[C@H]1O (some centres not stated) | 6.16 | > 100 | > 100 µM | > 100 µM | 3.97 | > 100 | > 100 | > 100 | > 100 | > 100 | 0.107 | > 100 | 10.3 | > 100 | 7.31 | > 100 | 53.6 µM | > 100 | > 100 | > 100 |
| Fc1cccc(Cl)c1/C=N\N=C1c2ccccc2-c2ccccc21 |  | > 100 |  | > 100 µM |  | > 100 |  | > 100 |  | > 100 |  | > 100 |  | > 100 |  | > 100 |  | > 100 |  | > 100 |
| O=C(O)CSc1ncccc1[N+](=O)[O-] |  | > 100 |  | > 100 µM |  | > 100 |  | > 100 |  | > 100 |  | > 100 |  | > 100 |  | > 100 |  | > 100 |  | > 100 |
| CC1CCN(CC(=O)N2c3ccccc3Sc3cc4ccccc4cc32)CC1 |  | > 100 |  | > 100 µM |  | > 100 |  | > 100 |  | > 100 |  | > 100 |  | > 100 |  | > 100 |  | > 100 |  | > 100 |
| FCc1ncc(-c2ccc(C(F)(F)F)cc2)c(NC2CCCCCC2)n1 | > 10 | > 10 | > 10 µM | > 10 µM | > 10 | > 10 | > 10 | > 10 | > 10 | > 10 | > 10 | > 10 | > 10 | > 10 | > 10 | > 10 | > 10 µM | > 10 | > 10 | > 10 |
| CCN(CCNc1ccc(C)c2sc3ccccc3c(=O)c12)CC(C)(C)O | 6.84 | 25.5 | 2.59 µM | 7.78 µM | 14.6 | 34.3 | 11.5 | 29.2 | 6.88 | 23.7 | 6.26 | > 46 | 11.9 | 25.9 | 4.76 | > 100 | 4.63 µM | 15.8 | 14.3 | 33.7 |
| C[C@]12CC[C@@H]3c4ccc(O)cc4C(O)C[C@H]3[C@@H]1CCC2=O (some centres not stated) | > 100 | > 100 | > 100 µM | > 100 µM | > 100 | > 100 | > 100 | > 100 | > 100 | > 100 | > 100 | > 100 | > 100 | > 100 | > 100 | > 100 | > 100 µM | > 100 | > 100 | > 100 |
| CCCCCCN(CCCCCC)CC(O)c1ccc2c3c(cccc13)CC2 (configuration not stated) | 10.4 | 24 | 6.63 µM | 25.1 µM | 12.1 | 24.7 | 10.8 | 27.2 | 6.86 | 21.3 | 4.36 | 22.7 | 11.8 | 26.6 | 3.32 | 13.8 | 3.17 µM | 14.9 | 10.7 | 23.2 |
| Cc1cc(N/N=C/c2nc(-c3ccc(Cl)cc3)oc2C)c2cc(Cl)ccc2n1 | 1.76 | 3.6 | 1.68 µM | 3.66 µM | 1.92 | 3.76 | 3.42 | 14.7 | 3.25 | 10.3 | 2.34 | 9.11 | 3.95 | 16.1 | 0.344 | 4.84 | 1.56 µM | 3.51 | 1.85 | 3.48 |
| Cc1cc(-c2nnc3n2CCCCC3)c(C)n1-c1ccc(Cl)c(Cl)c1 | 16.8 | 65.8 | 11.7 µM | > 100 µM | 16.8 | 32.4 | 16.9 | 47 | 15.2 | 33.5 | 15 | 42.9 | 15.5 | 47.1 | 11 | 45.3 | 17.5 µM | 50.9 | 20.1 | 65.3 |
| c1nnc(NCNc2nncs2)s1 |  | > 100 |  | > 100 µM |  | > 100 |  | > 100 |  | > 100 |  | > 100 |  | > 100 |  | > 100 |  | > 100 |  | > 100 |
| O=C1c2ccccc2-n2c1nc1ccccc1c2=O |  | 17 |  | > 81.3 µM |  | 41 |  | 45.2 |  | > 100 |  | > 100 |  | > 91.2 |  | > 100 |  | 70.1 |  | > 100 |
| COc1ccc(Cl)cc1Nc1nc(C(F)(F)F)ccc1C(=O)N/N=C/c1cc(OC)c(OC)c(OC)c1 | 2.64 | 6.64 | 1.23 µM | 11.9 µM | 5.17 | 20.5 | 1.94 | 4.67 | 2.21 | 8.66 | 0.642 | 2.82 | 2.44 | 19.5 | 1.19 | 4.19 | 2.79 µM | > 100 | 1.76 | 7.28 |
| COC(=O)CCCCCN=Cc1c(O)c(O)c(C(C)C)c2cc(C)c(-c3c(C)cc4c(C(C)C)c(O)c(O)c(C=NCCCCCC(=O)OC)c4c3O)c(O)c12 | 1.35 | > 32.5 | 1.55 µM | > 32.5 µM | 1.35 | 28.1 | 1.68 | > 32.5 | 1.36 | > 32.5 | 1.05 | 16.5 | 1.21 | > 32.5 | 1.09 | 9.61 | 1.37 µM | > 32.5 | 1.15 | > 32.5 |
| COc1cc2nc(-c3ccc(C(F)(F)F)cc3)cc(OCCCN3CCCCC3)c2cc1OC | 0.722 | 19.4 | 0.399 µM | 10.1 µM | 0.947 | 13.6 | 2.15 | 9.94 | 0.536 | 4.04 | 1.7 | 8.56 | 2.82 | 14.6 | 0.193 | 3.62 | 2.91 µM | 13.3 | 7.81 | 24.5 |
| C=C1C(=O)O[C@H]2C[C@@]3(C)[C@H](O)CCC(=C)[C@@H]3[C@@H](OC(C)=O)[C@H]12 |  | 33.7 |  | 7.93 µM |  | 32.8 |  | 38.5 |  | 36.6 |  | > 31 |  | 31.5 |  | > 20 |  | > 100 |  | 24.1 |
| COC(=O)C1=C(C(=O)OC)SC(=C(Cl)C(=S)Sc2ccccc2N)S1 | 22.3 | 59.2 | 43.8 µM | > 100 µM | 13.5 | 33.2 | 19 | 66.2 | 16.6 | 42.9 | > 100 | > 100 | 32 | > 100 | 52.4 | > 100 | 55.4 µM | > 100 | 30.9 | 64.3 |
| Cc1nc(C(N)=S)sc1C(=O)C/C(=N/N)C(=O)Nc1cccc(Cl)c1C |  | > 100 |  | > 100 µM |  | > 100 |  | > 100 |  | > 100 |  | > 100 |  | > 100 |  | > 100 |  | > 100 |  | > 100 |
| CN(C)C(=O)O[C@@H]1CN[C@@H](C#Cc2cc3ncnc(Nc4ccc(OCc5cccc(F)c5)c(Cl)c4)c3s2)C1 | 7.82 | > 25 | > 25 µM | > 25 µM | > 25 | > 25 | > 25 | > 25 | 6.6 | > 20 | 6.73 | > 21.8 | > 25 | > 25 | 20.1 | > 25 | > 25 µM | > 25 | 4.7 | > 25 |
| NC(=O)c1ccc(C2C3=C(CCCC3=O)OC3=C2C(=O)c2ccccc2C3=O)cc1 (configuration not stated) | 2.28 | 4.66 | 1.4 µM | 3.37 µM | 1.35 | 2.72 | 1.13 | 5.49 | 0.323 | 1.54 | 0.361 | 1.4 | 1.38 | 2.87 | 0.771 | 5.73 | 0.383 µM | 1.72 | 1.82 | 3.22 |
| CSc1ccc(/C=C2\C=C(CC(=O)NCc3ccc(C(=O)c4ccccc4)cc3)c3cc(F)ccc32)cc1 | 0.137 | 4.8 | 0.0492 µM | > 51.3 µM | 0.0633 | 3.38 | 0.0457 | 13 | 0.0643 | 5.3 | 0.15 | > 36.7 | 0.0705 | > 100 | 0.0306 | 26.2 | 0.0431 µM | > 100 | 0.329 | 6.93 |
| CNC(=S)N/N=C/c1ccc([N+](=O)[O-])s1 |  | > 10 |  | > 10 µM |  | > 10 |  | > 10 |  | > 10 |  | > 10 |  | > 10 |  | > 10 |  | > 10 |  | > 10 |
| COc1cc(S(C)(=O)=O)ccc1Nc1nc2ccc(-c3ccc(NC(=O)[C@H](C)c4ccc(F)cc4)cc3)cn2n1 | 98.5 | > 100 | 0.075 µM | > 100 µM | > 100 | > 100 | > 63.4 | > 100 | 26.6 | > 100 | 1.18 | > 100 | > 100 | > 100 | 0.211 | > 100 | 17.1 µM | > 100 | > 100 | > 100 |
| Cn1cc(CNCC2CCN(c3ncc(C(=O)NO)cn3)CC2)c2ccccc21 | 0.0123 | 0.519 | 0.144 µM | 15.8 µM | 0.0128 | 0.838 | 0.0185 | 42.6 | 0.04 | 5.58 | < 0.0135 | > 52.7 | 0.0251 | 0.9 | < 0.0124 | > 53.9 | 0.0147 µM | 2.11 | < 0.0107 | 0.0683 |
| CCN(CC)CCCC(C)Nc1c2ccc(C)cc2nc2ccc(OC)cc12 (configuration not stated) | 0.6 | 3.25 | 2.32 µM | 13.1 µM | 1.37 | 3.49 | 3.26 | 17.2 | 1.61 | 5.41 | 0.777 | 13.6 | 4.78 | 35.7 | 2.04 | 7.18 | 0.709 µM | 10.2 | 0.569 | 12.5 |
| c1cc(CNC2C3CCC(C3)C2c2c[nH]c3ccccc23)cc(CNC2C3CCC(C3)C2c2c[nH]c3ccccc23)c1 (configuration not stated) |  | > 100 | 0.325 µM and 0.301 µM | 1.01 µM and 1.12 µM |  |  |  | 3.32 |  | 2.81 | 1.07 | 3.38 |  | 2.26 |  | 0.773 | 2.11 µM and 0.386 µM | > 100 |  | 3.39 |
